Experimental data from patent publication US20200261391A1, “METHODS OF REDUCING THE RISK OF A CARDIOVASCULAR EVENT IN A STATIN-TREATED SUBJECT BY INCREASING SERUM AND PLASMA EPA AND DPA LEVELS” (Amarin Pharmaceuticals Ireland Limited, priority 2019, published 2020).

How the values were obtained:
Type in all cases: in vivo, human
[1] = test system: patients with elevated triglyceride levels on statin therapy; assay: REDUCE-IT endpoints by pooled (icosapent ethyl and placebo) EPA/AA ratio tertile; conditions: icosapent ethyl and placebo pooled
Description: The objective of this study is to assess the effects of administering icosapent ethyl at 4 g per day to patients from the REDUCE-IT trial of Example 1. More specifically, patients from the REDUCE-IT trial of Example 1 were stratified by their EPA levels into one of three tertiles. Following stratification, the objective was to determine if the RRR differs between patients having EPA levels in the three different tertiles. For the data collected as shown in Tables 38-43 and FIGS. 52, 53, and 56-59, the tertiles were established based on data collected from subjects at 1 year, 2 years, and last visit following icosapent ethyl administration compared to placebo. Data are presented as an average of 1 year, 2 year, […], and end of study values. The data was further analyzed use both pooled and unpooled statistically methods.
Placebo and icosapent ethyl treated subjects were pooled and stratified based on EPA/AA tertiles with […], […], and the highest […]

[2] = test system: patients with elevated triglyceride levels on statin therapy; assay: REDUCE-IT endpoints by EPA/AA ratio tertile in the icosapent ethyl group compared to placebo; conditions: EPA/AA ≤0.373068; on-treatment average of year 1, year 2, last visit
[3] = test system: patients with elevated triglyceride levels on statin therapy; assay: REDUCE-IT recurrent and total ischemic events (Example 2; Andersen-Gill and Wei-Lin-Weissfeld models); conditions: for total key secondary endpoint events, HR / total key secondary endpoint events, number: without adjustment for stratification differences
Description: The following study was a multi-center, placebo-controlled clinical trial the details of which are described above in Example 1, the REDUCE-IT design. […] Randomization was stratified by cardiovascular risk cohort (i.e., secondary or primary prevention), use of ezetimibe, and by geographic region.
The primary outcome for the study was total recurrent events consisting of the composite of cardiovascular death, nonfatal myocardial infarction, nonfatal stroke, coronary revascularization, or hospitalization for unstable angina. Recurrent event analyses were also performed for the key secondary endpoint, a composite of cardiovascular death, non-fatal myocardial infarction, or non-fatal stroke. For each of these composite endpoints, the effects of icosapent ethyl in the secondary and primary prevention strata were examined separately.
Demographic and baseline disease characteristics are presented using frequencies and percentages for categorical variables and medians with interquartile ranges for continuous variables. Between treatment group comparisons were derived using the chi-square test for categorical variables and Wilcoxon rank test for continuous variables. All clinical endpoint events used in the efficacy analyses were adjudicated by an independent Clinical Endpoint Committee (CEC) who were blinded to the treatment assignment. Since the primary efficacy endpoint was the time from randomization to the first occurrence of any component of the composite endpoint, and recurrence of such events within each patient is possible, a pre-specified analysis using a Cox proportional-hazard with the counting-process formulation of Andersen and Gill was performed to model the first and all recurrent cardiovascular events. Hazard ratios (HR) and corresponding 95% confidence intervals (CI) are reported from this model. In addition, as a marginal model and an extension of survival models based on the Cox proportional hazard model, the modified Wei-Lin-Weissfeld (WLW) method for analysis of recurrent events in the presence of deaths was carried out as a supportive analysis. In addition, as pre-specified, a recurrent event analysis using the Andersen-Gill and Wei-Lin-Weissfeld methods were carried out for the individual primary event components other than CV death. Though not pre-specified, additional recurrent event analyses were performed for the key secondary endpoint, which is a composite of CV death, non-fatal MI, or non-fatal stroke, and for the primary endpoint and the key secondary endpoint in the primary and secondary prevention strata to explore further the consistency of clinical benefit of icosapent ethyl. In subgroup analyses of the two cardiovascular risk strata (i.e., primary and secondary prevention), site-level discrepancies in cardiovascular risk group assignment occurring at entry and detected during the study (1.8%) were adjusted to conform with documented medical history data prior to randomization. All efficacy analyses were performed according to the intention-to-treat principle. All tests were based on a 2-sided nominal significance level of 5% with no adjustments for multiple comparisons.

[4] = highest >0.395187 vs lowest ≤0.084337
[5] = highest >0.395187 vs middle >0.084337 to ≤0.395187
[6] = middle >0.084337 to ≤0.395187 vs lowest ≤0.084337
[7] = Wei-Lin-Weissfeld model, vs placebo
[8] = per 100 patients treated for five years

SMILES: CC/C=C\C/C=C\C/C=C\C/C=C\C/C=C\CCCC(=O)OCC [icosapent ethyl, eicosapentaenoic acid ethyl ester]
- HR (95% CI), Key Secondary Endpoint, pooled EPA/AA ratio tertiles, Highest vs Lowest [1, 4]: 0.57 (0.48,0.68)
- HR (95% CI), Primary Endpoint, pooled EPA/AA ratio tertiles, Highest vs Lowest [1, 4]: 0.64 (0.56, 0.73)
- HR (95% CI), Key Secondary Endpoint, pooled EPA/AA ratio tertiles, Highest vs Middle [1, 5]: 0.75 (0.63, 0.89)
- HR (95% CI), Primary Endpoint, pooled EPA/AA ratio tertiles, Highest vs Middle [1, 5]: 0.84 (0.73, 0.96)
- HR (95% CI), Key Secondary Endpoint, pooled EPA/AA ratio tertiles, Middle vs Lowest [1, 6]: 0.76 (0.65, 0.89)
- HR (95% CI), Primary Endpoint, pooled EPA/AA ratio tertiles, Middle vs Lowest [1, 6]: 0.77 (0.67, 0.87)
- HR (95% CI), Primary Endpoint, Lowest EPA/AA ratio tertile vs Placebo [2]: 0.83 (0.71, 0.97)
- first events, reduction ([3]; Example 2): 25%
- second events, reduction ([3]; Example 2): 28%
- third or more events, reduction ([3]; Example 2): 50%
- total events for primary composite efficacy outcome, relative risk reduction ([3]; Example 2): 32%
- first occurrence of primary composite endpoint, HR [3, 7]: 0.75
- second occurrence of primary composite endpoint, HR [3, 7]: 0.72
- additional primary endpoint events, total reduction vs placebo (number) ([3]; in vivo): 179
- first primary endpoint events, total reduction vs placebo (number) ([3]; in vivo): 196
- second primary endpoint events, total reduction vs placebo (number) ([3]; in vivo): 164
- total primary endpoint events, number ([3]; overall trial, placebo 1,724): 1,185
- total key secondary endpoints, number ([3]; overall, placebo 861): 590
- total key secondary endpoints, HR ([3]; overall, vs placebo): 0.71
- cardiovascular deaths prevented [3, 8]: 1
- coronary revascularizations prevented [3, 8]: 8
- episodes of unstable angina prevented [3, 8]: 2
- myocardial infarctions prevented [3, 8]: 4
- strokes prevented [3, 8]: 1
- additional primary endpoint events, number ([3]; placebo 360): 131
- second primary endpoint events, number ([3]; placebo 463): 299
- first primary endpoint events, number ([3]; placebo 901): 705
- total key secondary endpoints, HR ([3]; primary prevention stratum): 0.71
- total primary endpoint events, HR ([3]; primary prevention stratum, adjusted stratification): 0.79
- total primary endpoint events, number ([3]; primary prevention stratum, adjusted stratification, placebo 256): 197
- total primary endpoint events, HR ([3]; primary prevention stratum, without adjusting for stratification differences): 0.86
- total primary endpoint events, number ([3]; primary prevention stratum, without adjusting for stratification differences, placebo 263): 221
- total key secondary endpoint events, HR ([3]; primary prevention): 0.78
- total key secondary endpoint events, number ([3]; primary prevention, placebo 142): 112
- total key secondary endpoints, HR ([3]; secondary prevention stratum): 0.70
- total primary endpoint events, HR ([3]; secondary prevention stratum, adjusted stratification): 0.66
- total primary endpoint events, number ([3]; secondary prevention stratum, adjusted stratification, placebo 1,468): 988
- total primary endpoint events, HR ([3]; secondary prevention stratum, without adjusting for stratification differences): 0.65
- total primary endpoint events, number ([3]; secondary prevention stratum, without adjusting for stratification differences, placebo 1,461): 964
- total key secondary endpoint events, HR ([3]; secondary prevention stratum): 0.69
- total key secondary endpoint events, number ([3]; secondary prevention stratum, placebo 671): 478
- total primary endpoint events, HR ([3]; vs placebo, overall trial): 0.68
